The results in this text go back to patent publication US9000175B2, “Bicyclic GPR119 modulators” (Lupin Limited, priority 2010, dated 2015).

Each structure is given as a SMILES string.

In the test the target is T1, human GPR119 (Homo sapiens, UniProt Q8TDV5).
T1 construct: expressed in transfected cells
T1 sequence (Q8TDV5 1-335): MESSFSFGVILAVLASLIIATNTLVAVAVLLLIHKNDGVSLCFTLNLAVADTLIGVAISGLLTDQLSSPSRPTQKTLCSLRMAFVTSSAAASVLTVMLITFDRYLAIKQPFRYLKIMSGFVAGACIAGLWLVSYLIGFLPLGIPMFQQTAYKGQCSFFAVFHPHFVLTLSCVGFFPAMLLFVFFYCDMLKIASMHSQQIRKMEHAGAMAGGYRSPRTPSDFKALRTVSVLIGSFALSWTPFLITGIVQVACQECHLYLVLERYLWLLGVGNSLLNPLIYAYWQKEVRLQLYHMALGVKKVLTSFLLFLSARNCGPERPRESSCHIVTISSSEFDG
The test is described as follows: Cyclic AMP assay in stable cell line. Format: cell-based. The following applies: CHO-K1 cells stably transfected with human GPR119; cAMP levels (FRET, cAMP femto kit); 1 h at 37° C; read-out: EC50 Range. On the procedure:
Cyclic AMP Assay in Stable Cell Line:
Chinese Hamster Ovary (CHO-K1) cells were stably transfected with human GPR119 and were maintained in Ham's F-12 complete medium containing 10% heat inactivated FBS (Sigma, UK). The cells were maintained under a selection pressure with 500 μg/ml G418 (GENETICIN). Stable clones were analyzed for functional cAMP response to OEA (oleoylethanolamide).
To estimate activation of GPR119 and induction of cAMP levels by GPR119 agonists, cells were serum starvation for 18-24 h, trypsinized and seeded in 96 well plates at a, density of 7500 cells/well. The cells were then treated with test compounds diluted in serum free Ham's F12 for 1 h at 37° C. The cAMP levels were measured by using the cAMP femto kit (CisBio) by following the manufacturer's instructions. Following treatment with a test compound, the cells were lysed and cAMP levels were estimated by adding D2-labelled cAMP and europium-cryptate conjugated anti-cAMP antibody. Close proximity of D2 and cryptate results in FRET and the subsequent fluorescence that is measured at 665 and 620 nm. The FRET response is calculated as the ratio of fluorescence at 665 to fluorescence at 620 nm. The unlabelled cAMP produced as a result of GPR119 activation/agonism competes with the D2-cAMP leading to a decrease in the FRET signal. Thus the FRET signal is inversely proportional to the amount of cAMP produced by the treated cells. In a separate set of wells, known concentrations of cAMP were added in order to get a standard linear curve for extrapolation of the cAMP values in the unknown/test samples. Fluorescence was measured on BMG Labtech PHERAstar machine.
The concentration of compound required to stimulate a half-maximal response (EC50) was determined using the GraphPad Prism software.
The compounds prepared were tested using the above assay procedure and the results obtained are given below.
A general note: Cyclic AMP is a second messenger, typically raised through Gs and lowered through Gi signalling.
The EC50 is the midpoint of the concentration-response curve. Consider `CCc1cnc(N2CCC(Oc3ccc(-n4cc(C)c5cc(S(C)(=O)=O)ccc54)nc3)CC2)nc1` [Example-168, 1-(5-((1-(5-Ethylpyrimidin-2-yl)piperidin-4-yl)oxy)pyridin-2-yl)-3-methyl-5-(methylsulfonyl)-1H-indole], for which the EC50 was under 50 nM.

As for `CC(C)C(=O)Nc1ccc2c(ccn2-c2ccc(OC3CCN(c4nc(C(C)C)no4)CC3)cn2)c1` [Example-57, N-(1-(5-((1-(3-Isopropyl-1,2,4-oxadiazol-5-yl)piperidin-4-yl)oxy)pyridin-2-yl)-1H-indol-5-yl)isobutyramide], the EC50 was under 50 nM.

Regarding `CC(C)(C)CN1CCC(Oc2ccc(-n3ccc4cc(S(C)(=O)=O)ccc43)nc2)CC1` [Example-35, 5-(Methylsulfonyl)-1-(5-((1-neopentylpiperidin-4-yl)oxy)pyridin-2-yl)-1H-indole], the EC50 was under 50 nM. Take `CC(C)(C)OC(=O)N1CCC(OCc2ccc(N3CCc4cc(S(C)(=O)=O)ccc43)nc2)CC1` [Example-46, tert-Butyl-4-((6-(5-(methylsulfonyl)indolin-1-yl)pyridin-3-yl)methoxy) piperidine-1-carboxylate]: the EC50 was under 50 nM. In the case of `CC(C)C(=O)Nc1ccc2c(ccn2-c2ccc(OC3CCN(C(=O)C(C)C)CC3)cn2)c1` [Example-127, N-(1-(5-((1-Isobutyrylpiperidin-4-yl)oxy)pyridin-2-yl)-1H-indol-5-yl) isobutyramide], the EC50 was under 50 nM. As for `CCc1cnc(N2CCC(Oc3ccc(-n4ccc5cc(C(=O)N(C)C)ccc54)nc3)CC2)nc1` [Example-40, 1-(5-((1-(5-Ethylpyrimidin-2-yl)piperidin-4-yl)oxy)pyridin-2-yl)-N,N-dimethyl-1H-indole-5-carboxamide], the half-maximal effective concentration (EC50) is under 50 nM. Turning to `CCOC(=O)Nc1ccc2c(ccn2-c2ccc(OC3CCN(C(=O)OC(C)(C)C)CC3)cn2)c1` [Example-8, tert-Butyl-4-((6-(5-((ethoxycarbonyl)amino)-1H-indol-1-yl)pyridin-3-yl)oxy)piperidine-1-carboxylate], the EC50 is under 50 nM. With `CCc1cnc(N2CCC(OCc3ccc(N4CCc5cc(S(C)(=O)=O)ccc54)nc3)CC2)nc1` [Example-113, 1-(5-(((1-(5-Ethylpyrimidin-2-yl)piperidin-4-yl)oxy)methyl)pyridin-2-yl)-5-(methylsulfonyl)indoline], the 50% effective concentration (EC50) was in the range of 250 to 1000 nM. With `CC(C)(C)OC(=O)N1CC2COCC(C1)C2Oc1ccc(-n2ccc3cc(S(C)(=O)=O)ccc32)nc1` (stereo not drawn) [Example-49, (anti) tert-Butyl-9-((6-(5-(methylsulfonyl)-1H-indol-1-yl)pyridin-3-yl)oxy)-3-oxa-7-azabicyclo[3.3.1]nonane-7-carboxylate], the EC50 is under 50 nM. The same measure for `CC(C)(C)OC(=O)N1CCC(Oc2ccc(-n3ccc4cc(C(=O)NCCO)ccc43)nc2)CC1` [Example-76, tert-Butyl-4-((6-(5-((2-hydroxyethyl)carbamoyl)-1H-indol-1-yl)-pyridin-3-yl)oxy)piperidine-1-carboxylate]: 50 to 250 nM; for `CC(C)c1noc(CN2CCC(Oc3ccc(-n4ccc5cc(C(=O)N(C)C)ccc54)nc3)CC2)n1` [Example-84]: 250 to 1000 nM; for `CC(C)c1noc(-c2ccc3c(ccn3-c3ccc(OC4CCN(C(=O)OC(C)(C)C)CC4)cn3)c2)n1` [Example-99, tert-Butyl-4-((6-(5-(3-isopropyl-1,2,4-oxadiazol-5-yl)-1H-indol-1-yl)pyridin-3-yl)oxy)piperidine-1-carboxylate]: 250 to 1000 nM. As for `CC(C)(C)OC(=O)N1CCC(Oc2ccc(-n3ccc4cc(CO)ccc43)nc2)CC1` [Example-94, tert-Butyl-4-((6-(5-(hydroxymethyl)-1H-indol-1-yl)pyridin-3-yl)oxy)piperidine-1-carboxylate], the EC50 was 250 to 1000 nM.

For `CCOC(=O)N1CCC(OCc2ccc(-n3ccc4cc(S(C)(=O)=O)ccc43)nc2)CC1` [Example-107, Ethyl 4-((6-(5-(methylsulfonyl)-1H-indol-1-yl)pyridin-3-yl)methoxy) piperidine-1-carboxylate], the 50% effective concentration (EC50) was in the range of 250 to 1000 nM.

Consider `CCc1cnc(N2CCC(Oc3ccc(-n4ccc5cc(-c6nc(C(C)C)no6)ccc54)nc3)CC2)nc1` [Example-100, 5-(1-(5-((1-(5-Ethylpyrimidin-2-yl)piperidin-4-yl)oxy)pyridin-2-yl)-1H-indol-5-yl)-3-isopropyl-1,2,4-oxadiazole], for which the 50% effective concentration (EC50) is 250 to 1000 nM. `CC(C)(F)CN1CCC(Oc2ccc(-n3ccc4cc(S(C)(=O)=O)ccc43)nc2)CC1` [Example-14, 1-(5-((1-(2-Fluoro-2-methylpropyl)piperidin-4-yl)oxy)pyridin-2-yl)-5-(methylsulfonyl)-1H-indole]: the EC50 was under 50 nM.

For the molecule `CCc1cnc(N2CCC(COc3ccc(-n4ccc5cc(S(C)(=O)=O)ccc54)nc3)CC2)nc1` [Example-6, 1-(5-((1-(5-Ethylpyrimidin-2-yl)piperidin-4-yl)methoxy)pyridin-2-yl)-5-(methylsulfonyl)-1H-indole], the concentration for a half-maximal effect (EC50) was under 50 nM. The value for `CC(C)OC(=O)N1CCC(Oc2ccc(-n3ccc4cc(N5CCOC5=O)ccc43)nc2)CC1` [Example-166, Isopropyl 4-((6-(5-(2-oxooxazolidin-3-yl)-1H-indol-1-yl)pyridin-3-yl)oxy)piperidine-1-carboxylate] was 250 to 1000 nM.

As for `CC(C)NC(=O)c1ccc2c(c1)CCN2c1ccc(OC2CCN(C(=O)OC(C)(C)C)CC2)cn1` [Example-136, tert-Butyl-4-((6-(5-(isopropylcarbamoyl)indolin-1-yl)pyridin-3-yl)-oxy) piperidine-1-carboxylate], the half-maximal effective concentration (EC50) is under 50 nM. The same measure for `CC(C)c1noc(CN2CCC(Oc3ccc(-n4ccc5cc(S(C)(=O)=O)ccc54)nc3)CC2)n1` [Example-80, 3-Isopropyl-5-((4-((6-(5-(methylsulfonyl)-1H-indol-1-yl)pyridin-3-yl)oxy)piperidin-1-yl)methyl)-1,2,4-oxadiazole]: under 50 nM; for `CCOC(=O)N1CCC(Oc2ccc(-n3ccc4cc(N5CCCC5=O)ccc43)nc2)CC1` [Example-182, Ethyl 4-((6-(5-(2-oxopyrrolidin-1-yl)-1H-indol-1-yl)pyridin-3-yl)oxy) piperidine-1-carboxylate]: 50 to 250 nM. In the case of `CCOC(=O)Nc1ccc2c(ccn2-c2ccc(OC3CCN(c4ncc(CC)cn4)CC3)cn2)c1` [Example-9, Ethyl(1-(5-((1-(5-ethylpyrimidin-2-yl)piperidin-4-yl)oxy)pyridin-2-yl)-1H-indol-5-yl)carbamate], the EC50 was under 50 nM. The value for `CC(C)OC(=O)N1CCC(Oc2ccc(-n3ccc4cc(C(=O)N5CCCC5)ccc43)nc2)CC1` [Example-70, Isopropyl 4-((6-(5-(pyrrolidine-1-carbonyl)-1H-indol-1-yl)pyridin-3-yl)oxy)piperidine-1-carboxylate] was 50 to 250 nM.

Turning to `CC(C)(C)OC(=O)N1CC2COCC(C1)C2Oc1ccc(-n2ccc3cc(S(C)(=O)=O)ccc32)nc1` (stereo not drawn) [Example-48, (syn)-tert-Butyl-9-((6-(5-(methylsulfonyl)-1H-indol-1-yl)pyridin-3-yl)oxy)-3-oxa-7-azabicyclo[3.3.1]nonane-7-carboxylate], the EC50 was 50 to 250 nM. Take `CCc1cnc(N2CCC(Oc3ccc(-n4ccc5cc(CNC(=O)C(C)C)ccc54)nc3)CC2)nc1` [Example-98, N-((1-(5-((1-(5-Ethylpyrimidin-2-yl)piperidin-4-yl)oxy)pyridin-2-yl)-1H-indol-5-yl)methyl)isobutyramide]: the EC50 is under 50 nM. The same measure for `CCOC(=O)N1CCC(Oc2ccc(-n3ccc4cc(-n5cncn5)ccc43)nc2)CC1` [Example-192, Ethyl-4-((6-(5-(1H-1,2,4-triazol-1-yl)-1H-indol-1-yl)pyridin-3-yl)oxy) piperidine-1-carboxylate]: 250 to 1000 nM.

As to `CC(C)c1noc(N2CCC(Nc3ccc(-n4ccc5cc(S(C)(=O)=O)ccc54)nc3)CC2)n1` [Example-120, N-(1-(3-Isopropyl-1,2,4-oxadiazol-5-yl)piperidin-4-yl)-6-(5-(methylsulfonyl)-1H-indol-1-yl)pyridin-3-amine], the EC50 is under 50 nM. Turning to `CC(C)C(=O)Nc1ccc2c(ccn2-c2ccc(OC3CCN(C(=O)OC(C)(C)C)CC3)cn2)c1` [Example-56, tert-Butyl-4-((6-(5-isobutyramido-1H-indol-1-yl)pyridin-3-yl)oxy)-piperidine-1-carboxylate], the EC50 is under 50 nM.
